{"source": "ChEMBL document CHEMBL6071165", "about": "“Design, synthesis and biological evaluation of plant-derived miliusol derivatives achieve TNBC profound regression in vivo” (Eur J Med Chem, 2024)", "key": {"BT-549 [1]": {"test_system": "BT-549", "assay": "Induction of apoptosis in human BT-549 cells assessed as necrotic cells at 1 uM incubated for 24 hrs by Annexin V-PI staining based flow cytometric analysis (reference value: 3.32%)", "assay_type": "functional"}, "MDA-MB-231 [2]": {"test_system": "MDA-MB-231", "assay": "Antiproliferative activity against human MDA-MB-231 cells xenografted in female BALB/c mouse model assessed as fold change in downregulation of MMP-2 protein level at 10 mg/kg administered subcutaneously incubated for 24 hrs by Western blot analysis (reference value: 1.00%)", "assay_type": "functional", "details": "route sc"}, "Mitochondrial membrane": {"test_system": "Mitochondrial membrane", "assay": "Disruption of mitochondrial potential loss in human MDA-MB-231 cells assessed as increase in JC-1 monomers at 1 uM incubated for 24 hrs by JC-1 staining based flow cytometric analysis (Rvb =1.68%)", "assay_type": "cell membranes"}, "BT-549 [3]": {"test_system": "BT-549", "assay": "Antiproliferative activity against human BT-549 cells xenografted in female BALB/c mouse model assessed as fold change in upregulation of BAX protein level at 20 mg/kg administered subcutaneously incubated for 24 hrs by Western blot analysis (reference value: 1.00%)", "assay_type": "functional", "details": "route sc"}, "MDA-MB-231 [4]": {"test_system": "MDA-MB-231", "assay": "Induction of apoptosis in human MDA-MB-231 cells incubated for 24 hrs by Annexin V-PI staining based flow cytometric analysis", "assay_type": "functional, cell-based", "details": "dose 0.5-2 µM"}, "MDA-MB-231 [5]": {"test_system": "MDA-MB-231", "assay": "Induction of ER stress in human MDA-MB-231 cells assessed as appearance of large number of vacuoles at 1 uM incubated for 24 hrs by TEM analysis", "assay_type": "functional, cell-based"}, "BT-549 [6]": {"test_system": "BT-549", "assay": "Antiproliferative activity against human BT-549 cells xenografted in female BALB/c mouse model assessed as fold change in downregulation of MMP-2 protein level at 10 mg/kg administered subcutaneously incubated for 24 hrs by Western blot analysis (reference value: 1.00%)", "assay_type": "functional", "details": "route sc"}, "MDA-MB-231 [7]": {"test_system": "MDA-MB-231", "assay": "Antimetastatic activity against human MDA-MB-231-Luc cells xenografted in female BALB/C mouse assessed as reduction in metastasis speed at 20 mg/kg administered subcutaneously and measured for 16 days", "assay_type": "functional, organism-based", "details": "route sc, time 16.0 day"}, "MDA-MB-231 [8]": {"test_system": "MDA-MB-231", "assay": "Induction of apoptosis in human MDA-MB-231 cells assessed as viable cells at 1 uM incubated for 24 hrs by Annexin V-PI staining based flow cytometric analysis (reference value: 96.5%)", "assay_type": "functional", "details": "read-out: Activity"}, "[9]": {"assay": "Toxicity in female BALB/c mouse xenografted with human BT-549 cells assessed as effect on pathological changes in kidney at 5 to 20 mg/kg, sc by H and E staining based analysis", "assay_type": "organism-based", "details": "in vivo, dose 5-20 mg/kg"}, "MDA-MB-231 [10]": {"test_system": "MDA-MB-231", "assay": "Inhibition of glycolysis in human MDA-MB-231 cells assessed as reduction in lactate production at 0.5 to 2 uM", "assay_type": "functional, cell-based", "details": "dose 0.5-2 µM"}, "BT-549 [11]": {"test_system": "BT-549", "assay": "Inhibition of glycolysis in human BT-549 cells assessed as reduction in lactate production at 0.5 to 2 uM", "assay_type": "functional, cell-based", "details": "dose 0.5-2 µM"}, "MDA-MB-231 [12]": {"test_system": "MDA-MB-231", "assay": "Inhibition of glycolysis in human MDA-MB-231 cells assessed as decrease in PKM2 protein level at 0.5 to 2 uM incubated for 24 hrs by Western blot analysis", "assay_type": "functional, cell-based", "details": "dose 0.5-2 µM"}, "BT-549 [13]": {"test_system": "BT-549", "assay": "Antiproliferative activity against human BT-549 cells xenografted in female BALB/c mouse model assessed as inhibition of Ki-67 expression at 5 to 20 mg/kg administered subcutaneously by immunohistochemical staining based microscopic analysis", "assay_type": "functional, organism-based", "details": "dose 5-20 mg/kg, route sc"}, "BT-549 [14]": {"test_system": "BT-549", "assay": "Antiproliferative activity against human BT-549 cells xenografted in female BALB/c mouse model assessed as fold change in cleavage of caspase-3 level at 20 mg/kg administered subcutaneously incubated for 24 hrs by Western blot analysis (reference value: 1.00%)", "assay_type": "functional", "details": "route sc"}, "MDA-MB-231 [15]": {"test_system": "MDA-MB-231", "assay": "Induction of apoptosis in human MDA-MB-231 cells assessed as early apoptotic cells at 0.5 uM incubated for 24 hrs by Annexin V-PI staining based flow cytometric analysis (reference value: 0.42%)", "assay_type": "functional"}, "MDA-MB-231 [16]": {"test_system": "MDA-MB-231", "assay": "Induction of apoptosis in human MDA-MB-231 cells assessed as late apoptotic cells at 1 uM incubated for 24 hrs by Annexin V-PI staining based flow cytometric analysis (reference value: 1.83%)", "assay_type": "functional"}, "MDA-MB-231 [17]": {"test_system": "MDA-MB-231", "assay": "Downregulation of LDHA expression in human MDA-MB-231 cells at 1 uM incubated for 24 hrs by DAPI staining based immunofluorescence analysis", "assay_type": "functional, cell-based"}, "BT-549 [18]": {"test_system": "BT-549", "assay": "Induction of apoptosis in human BT-549 cells assessed as upregulation of cleavage of caspase-3 expression at 0.5 to 2 uM incubated for 24 hrs by Western blot analysis", "assay_type": "functional, cell-based", "details": "dose 0.5-2 µM"}, "MDA-MB-231 [19]": {"test_system": "MDA-MB-231", "assay": "Induction of apoptosis in human MDA-MB-231 cells assessed as late apoptotic cells at 0.5 uM incubated for 24 hrs by Annexin V-PI staining based flow cytometric analysis (reference value: 1.83%)", "assay_type": "functional"}, "BT-549 [20]": {"test_system": "BT-549", "assay": "Induction of apoptosis in human BT-549 cells assessed as viable cells at 1 uM incubated for 24 hrs by Annexin V-PI staining based flow cytometric analysis (reference value: 93.0%)", "assay_type": "functional", "details": "read-out: Activity"}, "BT-549 [21]": {"test_system": "BT-549", "assay": "Antiproliferative activity against human BT-549 cells xenografted in female BALB/c mouse model assessed as fold change in inhibition of PKM2 expression at 10 mg/kg administered subcutaneously incubated for 24 hrs by Western blot analysis (reference value: 1.05%)", "assay_type": "functional", "details": "route sc"}, "BT-549 [22]": {"test_system": "BT-549", "assay": "Induction of apoptosis in human BT-549 cells assessed as necrotic cells at 0.5 uM incubated for 24 hrs by Annexin V-PI staining based flow cytometric analysis (reference value: 3.32%)", "assay_type": "functional"}, "MDA-MB-231 [23]": {"test_system": "MDA-MB-231", "assay": "Antiproliferative activity against human MDA-MB-231 cells xenografted in female BALB/c mouse model assessed as fold change in cleavage of caspase-3 level at 20 mg/kg administered subcutaneously incubated for 24 hrs by Western blot analysis (reference value: 1.00%)", "assay_type": "functional", "details": "route sc"}, "BT-549 [24]": {"test_system": "BT-549", "assay": "Downregulation of c-Jun level in human BT-549 cells incubated for 24 hrs by Western blot analysis", "assay_type": "functional, cell-based", "details": "dose 0.5-2 µM"}, "BT-549 [25]": {"test_system": "BT-549", "assay": "Antiproliferative activity against human BT-549 cells xenografted in female BALB/c mouse model assessed as fold change in upregulation of BIP protein level at 10 mg/kg administered subcutaneously incubated for 24 hrs by Western blot analysis (reference value: 1.00%)", "assay_type": "functional", "details": "route sc"}, "MDA-MB-231 [26]": {"test_system": "MDA-MB-231", "assay": "Antiproliferative activity against human MDA-MB-231 cells xenografted in female BALB/c mouse model assessed as fold change in cleavage of caspase-3 level at 10 mg/kg administered subcutaneously incubated for 24 hrs by Western blot analysis (reference value: 1.00%)", "assay_type": "functional", "details": "route sc"}, "BT-549 [27]": {"test_system": "BT-549", "assay": "Antiproliferative activity against human BT-549 cells xenografted in female BALB/c mouse model assessed as increase in E-cadherin level at 5 to 20 mg/kg administered subcutaneously by immunohistochemical staining based microscopic analysis", "assay_type": "functional, organism-based", "details": "dose 5-20 mg/kg, route sc"}, "MDA-MB-231 [28]": {"test_system": "MDA-MB-231", "assay": "Antiproliferative activity against human MDA-MB-231 cells xenografted in female BALB/c mouse model assessed as fold change in cleavage of caspase-3 level at 5 mg/kg administered subcutaneously incubated for 24 hrs by Western blot analysis (reference value: 1.00%)", "assay_type": "functional", "details": "route sc"}, "MDA-MB-231 [29]": {"test_system": "MDA-MB-231", "assay": "Inhibition of cell migration in human MDA-MB-231 cells assessed as decrease in MMP-2 level incubated for 24 hrs by Western blot analysis", "assay_type": "functional, cell-based", "details": "dose 0.5-2 µM"}, "BT-549 [30]": {"test_system": "BT-549", "assay": "Induction of apoptosis in human BT-549 cells assessed as upregulation of cleavage of PARP level at 0.5 to 2 uM incubated for 24 hrs by Western blot analysis", "assay_type": "functional, cell-based", "details": "dose 0.5-2 µM"}, "MDA-MB-231 [31]": {"test_system": "MDA-MB-231", "assay": "Induction of apoptosis in human MDA-MB-231 cells assessed as necrotic cells at 1 uM incubated for 24 hrs by Annexin V-PI staining based flow cytometric analysis (reference value: 1.29%)", "assay_type": "functional"}}, "note": "Calls of active or inactive are those of the source. No cut-off for these calls is given here.", "data": [{"smiles": "CC(C)=CCC/C(C)=C/[C@H]1OC(=O)CC12C[C@H](OC(=O)Cc1ccc(NC(=O)/C=C/c3ccccc3)cc1)C=CC2=O", "note": "(some centres not stated)", "values": [{"measurement": "Activity", "setting": "BT-549 [1]", "value": 5.44, "unit": "%"}, {"measurement": "fold change (FC)", "setting": "MDA-MB-231 [2]", "value": 0.26}, {"measurement": "Activity", "setting": "Mitochondrial membrane", "value": 42.6, "unit": "%"}, {"measurement": "fold change (FC)", "setting": "BT-549 [3]", "value": 2.21}, {"measurement": "Activity", "setting": "MDA-MB-231 [4]", "value": "Dose-Dependent Effect"}, {"measurement": "Activity", "setting": "MDA-MB-231 [5]", "value": "Active"}, {"measurement": "fold change (FC)", "setting": "BT-549 [6]", "value": 0.75}, {"measurement": "Activity", "setting": "MDA-MB-231 [7]", "value": "Active"}, {"measurement": "viability at 1 µM", "setting": "MDA-MB-231 [8]", "value": 42, "unit": "%"}, {"measurement": "Activity", "setting": "[9]", "value": "Non-Toxic"}, {"measurement": "inhibition", "setting": "MDA-MB-231 [10]", "value": "Active"}, {"measurement": "inhibition", "setting": "BT-549 [11]", "value": "Active"}, {"measurement": "inhibition", "setting": "MDA-MB-231 [12]", "value": "Active"}, {"measurement": "Activity", "setting": "BT-549 [13]", "value": "Active"}, {"measurement": "fold change (FC)", "setting": "BT-549 [14]", "value": 1.74}, {"measurement": "Activity", "setting": "MDA-MB-231 [15]", "value": 0.83, "unit": "%"}, {"measurement": "Activity", "setting": "MDA-MB-231 [16]", "value": 41.2, "unit": "%"}, {"measurement": "Activity", "setting": "MDA-MB-231 [17]", "value": "Active"}, {"measurement": "Activity", "setting": "BT-549 [18]", "value": "Active"}, {"measurement": "Activity", "setting": "MDA-MB-231 [19]", "value": 16.4, "unit": "%"}, {"measurement": "viability at 1 µM", "setting": "BT-549 [20]", "value": 66, "unit": "%"}, {"measurement": "fold change (FC)", "setting": "BT-549 [21]", "value": 0.76}, {"measurement": "Activity", "setting": "BT-549 [22]", "value": 3.73, "unit": "%"}, {"measurement": "fold change (FC)", "setting": "MDA-MB-231 [23]", "value": 2.09}, {"measurement": "Activity", "setting": "BT-549 [24]", "value": "Dose-Dependent Effect"}, {"measurement": "fold change (FC)", "setting": "BT-549 [25]", "value": 1.9}, {"measurement": "fold change (FC)", "setting": "MDA-MB-231 [26]", "value": 1.67}, {"measurement": "Activity", "setting": "BT-549 [27]", "value": "Active"}, {"measurement": "fold change (FC)", "setting": "MDA-MB-231 [28]", "value": 1.11}, {"measurement": "inhibition", "setting": "MDA-MB-231 [29]", "value": "Dose-Dependent Effect"}, {"measurement": "Activity", "setting": "BT-549 [30]", "value": "Active"}, {"measurement": "Activity", "setting": "MDA-MB-231 [31]", "value": 15.9, "unit": "%"}]}]}
